# Measured values taken from US20240116985A1, “STAPLED PEPTIDES AND METHODS THEREOF” (priority 2020, published 2024).
# Where two headings read alike, the source gives them in different places.
# What was measured:
# [1] = target: T1, full-length beta-Catenin (Uniprot ID P35222) (Homo sapiens, UniProt P35222); assay: Fluorescence polarization IC50 (beta-catenin / 5FAM-TCF4 10-53 competition); assay type: binding; conditions: fluorescence polarization; read-out: beta-Catenin FP IC50
# T1 construct: 10 nM full-length beta-Catenin (Uniprot ID P35222)
# T1 sequence (P35222 1-781): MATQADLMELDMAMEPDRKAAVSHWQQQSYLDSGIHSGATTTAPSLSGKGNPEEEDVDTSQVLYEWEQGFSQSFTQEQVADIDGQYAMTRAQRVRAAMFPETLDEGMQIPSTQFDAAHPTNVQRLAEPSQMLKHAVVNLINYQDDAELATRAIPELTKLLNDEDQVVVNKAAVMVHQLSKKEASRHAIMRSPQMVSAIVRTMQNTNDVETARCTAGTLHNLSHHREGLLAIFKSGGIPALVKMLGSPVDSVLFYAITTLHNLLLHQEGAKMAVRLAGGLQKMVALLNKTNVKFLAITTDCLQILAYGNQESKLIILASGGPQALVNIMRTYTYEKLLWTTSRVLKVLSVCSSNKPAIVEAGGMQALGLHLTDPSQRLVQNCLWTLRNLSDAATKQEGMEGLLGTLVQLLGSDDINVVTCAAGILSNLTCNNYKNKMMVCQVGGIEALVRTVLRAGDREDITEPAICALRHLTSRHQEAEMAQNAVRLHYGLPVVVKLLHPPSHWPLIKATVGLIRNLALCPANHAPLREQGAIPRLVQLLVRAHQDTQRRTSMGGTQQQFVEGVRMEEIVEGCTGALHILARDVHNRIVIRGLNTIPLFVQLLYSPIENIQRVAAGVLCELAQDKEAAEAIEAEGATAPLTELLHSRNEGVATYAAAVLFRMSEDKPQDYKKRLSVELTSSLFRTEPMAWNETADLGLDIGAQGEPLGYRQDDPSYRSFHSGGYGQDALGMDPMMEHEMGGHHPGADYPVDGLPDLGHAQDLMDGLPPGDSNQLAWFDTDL
# [2] = target: T2, beta-catenin/TCF4 engagement (Homo sapiens, UniProt P35222); assay: Nano-BRET target engagement assay (B-cat-Halo & TCF4-Luc in HEK293 cells); assay type: cell-based; conditions: read-out: NanoBRET Abs IC50
# T2 construct: expressed in transfected cells; host or cells: HEK293
# T2 sequence (P35222 1-781): T1 sequence (P35222 1-781)
# [3] = test system: TCF/LEF luciferase Reporter in DLD1 cells; assay: TCF reporter assay (DLD1 TCF/LEF luciferase reporter, Bright-Glo); assay type: cell-based; conditions: read-out: DLD1 4% Abs IC50
# Method in brief: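 DLD1 cells stably carrying a TCF/LEF luciferase reporter were plated at 5000 cells/well in RPMI + 4% FBS and treated overnight with a 1:2 compound dilution series. Bright-Glo luminescence read on day 3; viability by CellTiter-Glo. Absolute IC50 determined.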
# [4] = DLD1 reporter assay, 4%, absolute IC50
SMILES,IC50 [1],IC50 ([2]; absolute IC50),"IC50 [3, 4]",IC50 [2],IC50 ([3]; DLD1 4%)
"CC(=O)N1CCC[C@]12CC=CCCCC1(CCCC=CCCCOC(=O)N3CC[C@@](C(=O)N[C@@H](Cc4ccsc4)C(=O)N[C@@H](Cc4csc5ccccc45)C(=O)N[C@@H](CCC(N)=O)C(N)=O)(C3)NC(=O)[C@H](CC(C)C)NC(=O)[C@H](Cc3ccccc3)NC(=O)[C@H](C)NC(=O)[C@H](C)NC(=O)[C@H](CN(CCCC(F)(F)F)CC(=O)O)NC(=O)[C@H](CC(=O)O)NC1=O)NC(=O)[C@H](CC(C)(C)C)NC(=O)[C@H](CC(=O)O)NC2=O (stereo partly drawn) [I-1629, Ac-PL3-Asp-Npg-B5-Asp-[Tfb]GA-Ala-Ala-Phe-Leu-PyrS2-3Thi-BztA-Gln-NH2]",12 nM,4300 nM,2700 nM,–,–
"CC(=O)N1CCC[C@]12CC=CCCCC1(CCCC=CCCCOC(=O)N3CC[C@@](C(=O)N[C@@H](Cc4ccsc4)C(=O)N[C@@H](Cc4csc5ccccc45)C(=O)N[C@@H](CCC(N)=O)C(N)=O)(C3)NC(=O)[C@H](CC(C)C)NC(=O)[C@H](Cc3ccccc3)NC(=O)[C@H](C)NC(=O)[C@H](C)NC(=O)[C@H](CN(CC(=O)O)Cc3c(F)c(F)c(F)c(F)c3F)NC(=O)[C@H](CC(=O)O)NC1=O)NC(=O)[C@H](CC(C)(C)C)NC(=O)[C@H](CC(=O)O)NC2=O (stereo partly drawn) [I-1632, Ac-PL3-Asp-Npg-B5-Asp-[Pfbn]GA-Ala-Ala-Phe-Leu-PyrS2-3Thi-BztA-Gln-NH2]",10 nM,6500 nM,2600 nM,–,–
"CC(=O)N1CCC[C@]12CC=CCCCC1(CCCC=CCCCOC(=O)N3CC[C@@](C(=O)N[C@@H](Cc4ccccc4Cl)C(=O)N[C@@H](Cc4csc5ccccc45)C(=O)N[C@@H](CCC(N)=O)C(N)=O)(C3)NC(=O)[C@H](CC(C)C)NC(=O)[C@H](Cc3ccccc3)NC(=O)[C@H](C)NC(=O)CNC(=O)[C@H](Cc3cccc(C(=O)O)c3)NC(=O)[C@H](CC(=O)O)NC1=O)NC(=O)[C@H](CC(C)(C)C)NC(=O)[C@H](CC(=O)O)NC2=O (stereo partly drawn) [I-1684, Ac-PL3-Asp-Npg-B5-Asp-3COOHF-Gly-Ala-Phe-Leu-PyrS2-2C1F-BztA-Gln-NH2]",13 nM,4500 nM,3400 nM,–,–
"CCCC[C@@H]1NC(=O)[C@H](Cc2cccc(C(=O)O)c2)NC(=O)[C@H](CC(=O)O)NC(=O)C2(CCCC=CCCCOC(=O)N3CC[C@@](C(=O)N[C@@H](Cc4ccccc4Cl)C(=O)N[C@@H](Cc4csc5ccccc45)C(=O)N[C@@H](CCC(N)=O)C(N)=O)(C3)NC(=O)[C@H](CC(C)C)NC(=O)[C@H](Cc3ccccc3)NC(=O)[C@H](C)NC1=O)CCCC=CC[C@]1(CCCN1C(C)=O)C(=O)N[C@@H](CC(=O)O)C(=O)N[C@@H](CC(C)(C)C)C(=O)N2 (stereo partly drawn) [I-1685, Ac-PL3-Asp-Npg-B5-Asp-3COOHF-nLeu-Ala-Phe-Leu-PyrS2-2C1F-BztA-Gln-NH2]",23 nM,3500 nM,1300 nM,–,–
"CC(=O)N1CCC[C@]12CC=CCCCC1(CCCC=CCCCOC(=O)N3CC[C@@](C(=O)N[C@@H](Cc4ccsc4)C(=O)N[C@@H](Cc4csc5ccccc45)C(=O)N[C@H](C(N)=O)[C@@H](C)O)(C3)NC(=O)[C@H](CC(C)C)NC(=O)[C@H](Cc3ccccc3)NC(=O)[C@H](C)NC(=O)[C@H](C)NC(=O)[C@H](CN(CC(=O)O)CC(F)(F)F)NC(=O)[C@H](CC(=O)O)NC1=O)NC(=O)[C@H](CC(C)(C)C)NC(=O)[C@H](CC(=O)O)NC2=O (stereo partly drawn) [I-1706, Ac-PL3-Asp-Npg-B5-Asp-TfeGA-Ala-Ala-Phe-Leu-PyrS2-3Thi-BztA-Thr-NH2]",24 nM,4800 nM,2700 nM,–,–
"CC(=O)NCCCC[C@H](NC(=O)[C@H](Cc1csc2ccccc12)NC(=O)[C@H](Cc1ccsc1)NC(=O)[C@]12CCN(C1)C(=O)OCCCC=CCCCC1(CCCC=CC[C@]3(CCCN3C(C)=O)C(=O)N[C@@H](CC(=O)O)C(=O)N[C@@H](CC(C)(C)C)C(=O)N1)C(=O)N[C@@H](CC(=O)O)C(=O)N[C@@H](CN(CC(=O)O)CC(F)(F)F)C(=O)N[C@@H](C)C(=O)N[C@@H](C)C(=O)N[C@@H](Cc1ccccc1)C(=O)N[C@@H](CC(C)C)C(=O)N2)C(N)=O (stereo partly drawn) [I-1709, Ac-PL3-Asp-Npg-B5-Asp-TfeGA-Ala-Ala-Phe-Leu-PyrS2-3Thi-BztA-AcLys-NH2]",14 nM,6200 nM,3900 nM,–,–
"CC(=O)N1CCC[C@]12CC=CCCCC1(CCCC=CCCCOC(=O)N3CC[C@@](C(=O)N[C@@H](Cc4ccsc4)C(=O)N[C@@H](Cc4csc5ccccc45)C(=O)N[C@@H](C)C(N)=O)(C3)NC(=O)[C@H](CC(C)C)NC(=O)[C@H](Cc3ccccc3)NC(=O)[C@H](C)NC(=O)[C@H](C)NC(=O)[C@H](CN(CC(=O)O)CC(F)(F)F)NC(=O)[C@H](CC(=O)O)NC1=O)NC(=O)[C@H](CC(C)(C)C)NC(=O)[C@H](CC(=O)O)NC2=O (stereo partly drawn) [I-1710, Ac-PL3-Asp-Npg-B5-Asp-TfeGA-Ala-Ala-Phe-Leu-PyrS2-3Thi-BztA-Ala-NH2]",22 nM,3900 nM,1900 nM,–,–
"CC(=O)N1CCC[C@]12CC=CCCCC1(CCCC=CCCCOC(=O)N3CC[C@@](C(=O)N[C@@H](Cc4ccsc4)C(=O)N[C@@H](Cc4csc5ccccc45)C(=O)N[C@@H](C)C(N)=O)(C3)NC(=O)[C@H](CC(C)C)NC(=O)[C@H](Cc3ccccc3)NC(=O)[C@H](C)NC(=O)[C@H](CCC(N)=O)NC(=O)[C@H](Cc3cccc(C(=O)O)c3)NC(=O)[C@H](CC(=O)O)NC1=O)NC(=O)[C@H](CC(C)(C)C)NC(=O)[C@H](CC(=O)O)NC2=O (stereo partly drawn) [I-1918, Ac-PL3-Asp-Npg-B5-Asp-3COOHF-Gln-Ala-Phe-Leu-PyrS2-3Thi-BztA-Ala-NH2]",5 nM,–,–,4000 nM,6500 nM
"CC(=O)N1CCC[C@]12CC=CCCCC1(CCCC=CCCCOC(=O)N3CC[C@@](C(=O)N[C@@H](Cc4ccsc4)C(=O)N[C@@H](Cc4csc5ccccc45)C(=O)N[C@@H](C)C(N)=O)(C3)NC(=O)[C@H](CC(C)C)NC(=O)[C@H](Cc3ccccc3)NC(=O)[C@H](C)NC(=O)C(C)(C)NC(=O)[C@H](Cc3cccc(C(=O)O)c3)NC(=O)[C@H](CC(=O)O)NC1=O)NC(=O)[C@H](CC(C)(C)C)NC(=O)[C@H](CC(=O)O)NC2=O (stereo partly drawn) [I-1920, Ac-PL3-Asp-Npg-B5-Asp-3COOHF-Aib-Ala-Phe-Leu-PyrS2-3Thi-BztA-Ala-NH2]",18 nM,–,–,3100 nM,1200 nM
"CC(=O)N1CCC[C@]12CC=CCCCC1(CCCC=CCCCOC(=O)N3CC[C@@](C(=O)N[C@@H](Cc4ccsc4)C(=O)N[C@@H](Cc4csc5ccccc45)C(=O)N[C@@H](CC(N)=O)C(=O)N[C@@H](C)C(=O)N[C@@H](C)C(=O)N[C@H](C)C(N)=O)(C3)NC(=O)[C@H](CC(C)C)NC(=O)[C@H](Cc3ccccc3)NC(=O)[C@H](C)NC(=O)[C@H](C)NC(=O)[C@H](Cc3cccc(C(=O)O)c3)NC(=O)[C@H](CC(=O)O)NC1=O)NC(=O)[C@H](CC(C)(C)C)NC(=O)[C@H](CC(=O)O)NC2=O (stereo partly drawn) [I-2047, Ac-PL3-Asp-Npg-B5-Asp-3COOHF-Ala-Ala-Phe-Leu-PyrS2-3Thi-BztA-Asn-Ala-Ala-dAla-NH2]",11 nM,–,–,2600 nM,1300 nM
"CC(=O)N1CCC[C@]12CC=CCCCC1(CCCC=CCCCOC(=O)N3CC[C@@](C(=O)N[C@@H](Cc4ccsc4)C(=O)N[C@@H](Cc4csc5ccccc45)C(=O)N[C@@H](CCS(C)(=O)=O)C(N)=O)(C3)NC(=O)[C@H](CC(C)C)NC(=O)[C@H](Cc3ccccc3)NC(=O)[C@H](C)NC(=O)[C@H](C)NC(=O)[C@H](Cc3cccc(C(=O)O)c3)NC(=O)[C@H](CC(=O)O)NC1=O)NC(=O)[C@H](CC(C)(C)C)NC(=O)[C@H](CC(=O)O)NC2=O (stereo partly drawn) [I-2061, Ac-PL3-Asp-Npg-B5-Asp-3COOHF-Ala-Ala-Phe-Leu-PyrS2-3Thi-BztA-Met2O-NH2]",13 nM,–,–,1900 nM,1800 nM
"CC(=O)N1CCC[C@]12CC=CCCCC1(CCCC=CCCCOC(=O)N3CC[C@@](C(=O)N[C@@H](Cc4ccsc4)C(=O)N[C@@H](Cc4csc5ccccc45)C(=O)N[C@@H](CCC(N)=O)C(N)=O)(C3)NC(=O)[C@H](CC(C)C)NC(=O)[C@H](Cc3ccccc3)NC(=O)[C@H](C)NC(=O)[C@H](C)NC(=O)[C@H](CCn3cc(CC(C)(C)C(=O)O)nn3)NC(=O)[C@H](CC(=O)O)NC1=O)NC(=O)[C@H](CC(C)(C)C)NC(=O)[C@H](CC(=O)O)NC2=O (stereo partly drawn) [I-2077, Ac-PL3-Asp-Npg-B5-Asp-[CH2CMe2CO2H]TriAzDab-Ala-Ala-Phe-Leu-PyrS2-3Thi-BztA-Gln-NH2]",9 nM,–,–,12300 nM,5800 nM
